The text below walks through data of patent US9023336B2, “Deuterium-enriched aldehydes” (Protia, LLC, priority 2013, dated 2015).

The nature of the data set: Measurement of aldehyde oxidations (air autoxidation of aldehyde to carboxylic acid). The format is physicochemical. The settings on record: for amount of aldehyde remaining / loss of aldehyde: after 24 hours; for amount of aldehyde remaining: aldehyde 1 mmol in triacetin 2.0 mL + water 0.10 mL, stirred at room temperature under air, HPLC (benzaldehyde) or GC (hexanal); for loss of aldehyde: triacetin/water, room temperature, air. The protocol:
General Procedure for Measurement of Aldehyde Oxidations
To a 12 mL clear, colorless, glass vial, fitted with a stir bar, was added the aldehyde (1 mmol), triacetin (2.0 mL), and water (0.10 mL, purified by reverse osmosis). The top of the vial was covered with a tissue and the mixture was stirred vigorously at room temperature. In the benzaldehyde reactions, (both H and D), 4.0 μL aliquots were withdrawn at 0, 0.5, 18, 25, 96, and 120 hour time points. These were diluted with ethanol (1.0 mL), and analyzed by HPLC. […] These were diluted with ethanol (1.0 mL) and analyzed by GC.
Instruments and Conditions Used for Analysis:
High pressure liquid chromatography: Agilent XDB C18 50×4.6 mm 1.8 micron column
Solvent A—Water (0.1% TFA)
Solvent B—Acetonitrile (0.07% TFA)
Gradient—5 min 95% A to 95% B then 1 minute hold. 1.5 mL/min
UV Detection (integration) @ 210 and 254 nm
HP 6890GC Column=Agilent DB-5 15 m×0.25 mm capillary column.
35° C. start (2 min hold), ramping to 100° C. at 5° C. per minute
Flame Ion Detection (integration)

Consider `[2H]C(=O)c1ccccc1` [benzaldehyde-D], for which the “amount of aldehyde remaining” value is “approximately 90%” and the loss of aldehyde turned out to be 10%. Also, where the note is “after a period of approximately 24 hours”, the “reduction of autoxidation due to deuterium versus un-enriched aldehyde” value is given as “over 50%”.
On to `O=Cc1ccccc1` [benzaldehyde-H, benzaldehyde, reference compound], for which the “amount of aldehyde remaining” value is reported as “approximately 30%” and the loss of aldehyde amounted to 70%.
